{"source": "paper PMC11729550", "about": "“Discovery of indole analogue Tc3 as a potent pyroptosis inducer and identification of its combination strategy against hepatic carcinoma” (Theranostics, 2025)", "key": {"[1]": {"tested_on": "PLC-PRF5 cells", "assay": "Anti-tumor activity assay (IC50 value), cells counted after three days", "type": "cell-based", "settings": "Homo sapiens, PLC-PRF-5, 72 h", "description": "(§1) The cells were counted with hemocytometer."}, "[2]": {"tested_on": "GSDME", "assay": "Western blot of GSDME activation", "type": "cell-based, human", "settings": "HepG2 and SK-Hep1 cells", "description": "The whole-cell protein was extracted by RIPA lysis buffer contained with protease and phosphatase inhibitor cocktail (MCE, HY-K0010) from cells treated by indole analogues. Proteins were separated by sodium dodecyl sulfate-polyacrylamide gel electrophoresis (SDS-PAGE) gel, and then blotted onto polyvinylidene difluoride membrane (Millipore, IPVH00010). The membranes were incubated with the primary antibodies and the following horseradish peroxidase-conjugated (HRP) secondary antibodies. Next, membranes were washed and developed by ECL regent (Millipore, WBKLS0500)."}, "[3]": {"tested_on": "SK-Hep1 cells", "assay": "Anti-tumor activity assay (IC50 value), cells counted after three days", "settings": "Homo sapiens, SK-HEP1, 72 h, read-out: IC50 SK-Hep1", "procedure": "For half maximal inhibitory concentrations (IC50) analysis, the hepatic carcinoma cells (HepG2, SK-Hep1 and PLC-PRF5) were seeded in 24-well plates respectively, then treated with drugs at concentration gradient for three days. The cells were counted with hemocytometer. […] A is the cell quantity of the control group and B is the cell quantity of the drug treated group. The cell inhibition rate was transformed using its logarithm. And the drug IC50 value were calculated by Graphpad Prsim 9 software with curve fitting of the drug concentration and log (cell inhibition rate)."}, "[4]": {"tested_on": "Balb/c mice", "assay": "Subchronic toxicity test", "type": "in vivo", "description": "And the organ tissues of mice were collected for further H&E staining.\nThe formalin‐fixed and paraffin‐embedded tissues were cut into 5 μm sections. The sections were firstly soaked in xylene for removing paraffin and soaked in alcohol at decreasing concentration for tapping water. In the H&E staining assay, the sections were stained in Harris’s hematoxylin reagent and eosin reagent in turn. In the IHC staining, the sections were conducted antigen retrieval process and blocked with normal goat serum. Next, sections were incubated with the primary antibodies overnight and incubated with HRP-conjugated secondary antibodies. The tissue images were captured by a microscope."}, "[5]": {"assay": "Pharmacokinetic study of vein administration", "type": "in vivo", "settings": "Balb/c mice, intravenous 10 mg/kg", "description": "Chromatographic conditions employed an ultimate AQ-C18 column (2.1 mm × 50 mm, 5.0 μm) and its temperature was set to 40℃. The mobile phase consisted of methanol and 0.1% formic acid, with a gradient elution program: 0-0.01 min, methanol 15%, 0.01-2 min, methanol 95%, 2-3 min, methanol 15%. The flow rate was set to 0.6 mL/min, the elution time was 3 min and ESI-MS in negative mode MRM was used for quantitative analysis. Masslynx 4.1 software was used for data acquisition and instrument control.\nStock solutions of Tc3 (1.0 mg/mL) and JBHDN (0.1 mg/mL) were prepared in methanol. A series of working solutions (5, 20, 100, 200, 800, 1000 and 2000 ng/mL) were added into blank mouse blood to prepare the standard curves. The JBHDN stock solution was diluted with 5% trichloroacetic acid-methanol to 100 ng/mL. In the same manner as the standard curve, quality control (QC) samples at 10 ng/mL, 450 ng/mL, and 1500 ng/mL were prepared. Next, Balb/c mice were administered intravenously (10 mg/kg). After 5 min, 15 min, 30 min, 1 h, 2 h, 4 h, 8 h, and 24 h, blood samples (20 μL) were collected from the tail vein of mice and mixed with internal standard JBHDN (100 ng/mL). The mixtures were then vortexed for 10 min at 4℃ and centrifuged at 5500 g for 10 min. The supernatant was mixed with 200 μL ultrapure water, and then injected into liquid chromatography-tandem mass spectrometry (LC-MS/MS) system for analysis."}, "[6]": {"assay": "in vitro", "settings": "microsomes", "description": "The reaction media contained liver microsomes (0.5 mg/mL), 1.0 mM β-nicotinamide adenine dinucleotide phosphate (β-NADPH), 3 mM MgCl2 phosphate buffer. Microsomal suspensions were pre-incubated with Tc3 for 3 min at 37℃. The reaction was initiated with the addition of β-NADPH and samples were collected at 0, 5, 15, 30 and 60 min. The negative control was excluded of β-NADPH. Midazolam was incubated similarly as a positive control substrate. At each time point, an aliquot was mixed acetonitrile. Samples were centrifuged and then supernatant was mixed with ultrapure water for LC-MS/MS analysis."}, "[7]": {"tested_on": "pLKO.1 HepG2 cells", "assay": "Dose-response growth inhibition, control knockdown cells", "type": "cell-based", "settings": "Homo sapiens", "description": "as §1\nBriefly, the pLKO.1 or shRNA plasmids with psPAX2 and PMD2.G were transfected into HEK-293T cells via DNA transfection reagent (SignaGen®Laboratories, SL100688). And the cell supernatant contained Lenti-virus was collected after 24 hours. The Lenti-virus of shRNAs were used to infect the hepatic carcinoma cells and the stable-transfection cell lines were screened by puromycin (1 μg/mL) (Solarbio, P8230)."}, "[8]": {"tested_on": "CD8^+ T cells", "assay": "Fluorescence staining and flow cytometry of tumor-infiltrating cells", "type": "in vivo, C57 BL/6N mice", "settings": "Hepa1-6 CDXs, 10 mg/kg", "description": "The lymphocytes were isolated from the tumors and blocked by purified CD16/32 antibody. Next, the cells were stained with fluorescent-conjugated antibodies (FITC-CD11b, APC-F4/80, PE-CD86, Alexa Flour® 700-CD206, APC-Ly6G, FITC-CD45, APC-CD8a, Pacific Blue^TM-IFN-γ). The fluorescence intensity was measured by a FACS Calibur, and data were analyzed with FlowJo software.\nThe mice tumor tissues were embedded into the OCT reagent and sliced into 10 μm sections via the freezing microtome. The sections were fixed by paraformaldehyde, blocked by 3% bovine serum albumin (BSA, Beyotime, ST2254), and incubated with the primary antibodies overnight. In the second day, the sections were incubated with the fluorescent‐conjugated antibodies and 4′,6‐diamidino‐2‐phenylindole (DAPI, Solarbio, C0065) for nuclei. The tissue fluorescent images were captured by a confocal microscope (Leica, TCS SP8) and analyzed by imageJ software."}, "[9]": {"tested_on": "HepG2 and SK-Hep1 cells", "assay": "LDH release assay", "type": "cell-based, human", "settings": "0-4 μM, three days", "description": "The hepatic carcinoma cells were seeded in 96-well plates and treated with indole analogues for three days. Of note, the compounds were added into DMEM medium supplemented with 1% FBS. The cellular supernatant was collected for LDH release detection by using LDH cytotoxicity assay kit (Beyotime, C0016). Statistical analysis was combined with the cell viability data tested by WST-1 cell proliferation and cytotoxicity assay kit (Beyotime, C0035)."}}, "data": [{"molecule": "CC(C)[C@H](N)C(=O)NCCCn1cc(/C=C2\\S/C(=N\\c3ccc(N4CCOCC4)cc3)N(Cc3ccc(F)cc3)C2=O)c2ccccc21", "note": "[Tc3]", "values": [{"measurement": "IC50", "setting": "[1]", "value": 1790, "unit": "nM"}, {"measurement": "GSDME activation / cleavage (western blotting)", "setting": "[2]", "value": "promoted the cleavage of GSDME"}, {"measurement": "IC50", "setting": "[3]", "value": 1640, "unit": "nM"}, {"measurement": "glomerular structure of the kidney (HE staining)", "setting": "[4]; 60 mg/kg", "value": "slightly damaged"}, {"measurement": "jejunum crypts and villi (HE staining)", "setting": "[4]; 60 mg/kg", "value": "severely disrupted"}, {"measurement": "weight and health state", "setting": "[4]; 60 mg/kg i.p.", "value": "lower weight and worse health state"}, {"measurement": "lung findings (HE staining)", "setting": "[4]; i.p. every two days, day 14", "value": "alveolar wall thickening and increased numbers of lymphocytes"}, {"measurement": "toxicity to the heart, liver, spleen and stomach (HE staining)", "setting": "[4]; i.p. every two days, day 14", "value": "no significant toxicity"}, {"measurement": "plasma drug concentration", "setting": "[5]; 5 min-24 h", "value": "12.4 to 1417.0", "unit": "ng/mL"}, {"measurement": "AUC(0-t)", "setting": "[5]; mouse, whole blood", "value": 1520, "unit": "ng·h/mL"}, {"measurement": "half-life", "setting": "[5]; mouse, whole blood, read-out: half-life elimination t1/2 (converted)", "value": 485, "unit": "min"}, {"measurement": "half-life at 1 μM", "setting": "[6]; human", "value": 49.5, "unit": "min"}, {"measurement": "microsomal CLint at 1 μM", "setting": "[6]; human", "value": 28, "unit": "µL/min/mg"}, {"measurement": "half-life at 1 μM", "setting": "[6]; mouse", "value": 116, "unit": "min"}, {"measurement": "microsomal CLint at 1 μM", "setting": "[6]; mouse", "value": 12, "unit": "µL/min/mg"}, {"measurement": "IC50", "setting": "[7]", "value": 2220, "unit": "nM"}, {"measurement": "infiltration of activated CD8^+ T cells in tumors", "setting": "[8]", "value": "significantly promoted"}, {"measurement": "LDH release levels", "setting": "[9]", "value": "highest LDH release"}]}]}
